In patent US6087119A, “Method for determining the catalytic activity of factor IXa” (Roche Diagnostics GmbH, priority 1996, dated 2000):
Square brackets hold non-standard residues; d marks the D form. Peptide text beside a SMILES is read from it. * marks the point of attachment. dChg = N[C@@H](C(=O)O)C1CCCCC1; pNA = O=[N+]([O-])c1ccc(N*)cc1; Ms = CS(=O)(=O)*

Assays:
rFIXa (human) = rFIXa (human) (Homo sapiens, UniProt P00740); experiment: Kinetics of cleavage of chromogenic peptide substrates by rFIXa with ethylene glycol (Lineweaver Burk); type: biochemical; set-up: coding for the FIX protease domain from amino acid position 181 to 415; Met (ATG start codon) (N); made in house; conditions: pH 7.4
Protocol: (§1) MeSO2 -D-HHT-Gly-Arg-pNA (0.102-1.02 mmol/l)
0.48 μmol/l rFIXa (human)
MOC-D-Nle-Gly-Arg-pNA (0.102-1.02 mmol/l)
MeSO2 -D-CHG-Gly-Arg-pNA (0.102-1.02 mmol/l)
0.28 μmol/l rFIXa (human)
(§2) The kinetic constants (Kcat /Km) were determined graphically according to Lineweaver Burk (Km and Kcat cannot be determined separately since the straight lines go through the origin).

native FIXa (human) = native FIXa (human) (Homo sapiens, UniProt P00740); experiment: Kinetics of cleavage of chromogenic peptide substrate by native FIXa with ethylene glycol (Lineweaver Burk); type: biochemical; set-up: 0.14 μmol/l native FIXa (human); conditions: native FIXa 0.29 μmol/l, pH 7.4
Protocol: as §1
0.29 μmol/l native FIXa (human)
as §2

Chain of native FIXa (human) (P00740 227-461 limits assumed): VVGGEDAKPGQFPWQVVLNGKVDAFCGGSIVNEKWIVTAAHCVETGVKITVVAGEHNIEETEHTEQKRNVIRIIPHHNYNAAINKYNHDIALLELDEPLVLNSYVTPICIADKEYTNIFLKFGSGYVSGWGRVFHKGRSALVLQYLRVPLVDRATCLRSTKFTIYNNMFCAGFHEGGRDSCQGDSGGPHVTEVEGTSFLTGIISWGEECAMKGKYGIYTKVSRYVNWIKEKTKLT
Chain of native FIXa (human) (P00740 47-191 partner limits assumed): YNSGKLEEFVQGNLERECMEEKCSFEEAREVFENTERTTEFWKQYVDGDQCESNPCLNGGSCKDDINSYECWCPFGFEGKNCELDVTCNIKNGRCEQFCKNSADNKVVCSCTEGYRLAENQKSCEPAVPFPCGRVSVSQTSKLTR
Chain of rFIXa (human) (P00740 227-461): as the sequence (P00740 227-461 limits assumed) above
Chain of rFIXa (human) (P00740 131-226): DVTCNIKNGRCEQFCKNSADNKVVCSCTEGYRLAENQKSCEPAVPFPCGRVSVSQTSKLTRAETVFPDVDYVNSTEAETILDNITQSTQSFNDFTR

| kkat /Km (rFIXa (human); substrate MeSO2-D-CHG-Gly-Arg-pNA, rFIXa […], 8% ethylene glycol) | kkat /Km (rFIXa (human); substrate MeSO2-D-CHG-Gly-Arg-pNA, rFIXa […], 16% ethylene glycol) | kkat /Km (rFIXa (human); substrate MeSO2-D-CHG-Gly-Arg-pNA, rFIXa […], 25% ethylene glycol) | kkat /Km (rFIXa (human); substrate MeSO2-D-CHG-Gly-Arg-pNA, rFIXa […], 33% ethylene glycol) | kkat /Km (rFIXa (human); substrate MeSO2-D-CHG-Gly-Arg-pNA, rFIXa […], 41% ethylene glycol) | kkat /Km (rFIXa (human); substrate MeSO2-D-CHG-Gly-Arg-pNA, rFIXa […], 50% ethylene glycol) | kkat /Km (rFIXa (human); rFIXa 0.48 μmol/l, 8% ethylene glycol) | kkat /Km (rFIXa (human); rFIXa 0.48 μmol/l, 16% ethylene glycol) | kkat /Km (rFIXa (human); rFIXa 0.48 μmol/l, 25% ethylene glycol) | kkat /Km (rFIXa (human); rFIXa 0.48 μmol/l, 33% ethylene glycol) | kkat /Km (rFIXa (human); rFIXa 0.48 μmol/l, 41% ethylene glycol) | kkat /Km (rFIXa (human); rFIXa 0.48 μmol/l, 50% ethylene glycol) | kkat /Km (native FIXa (human); 8% ethylene glycol) | kkat /Km (native FIXa (human); 16% ethylene glycol) | kkat /Km (native FIXa (human); 25% ethylene glycol) | kkat /Km (native FIXa (human); 33% ethylene glycol) | kkat /Km (native FIXa (human); 41% ethylene glycol) | kkat /Km (native FIXa (human); 50% ethylene glycol) | SMILES |
| --- | --- | --- | --- | --- | --- | --- | --- | --- | --- | --- | --- | --- | --- | --- | --- | --- | --- | --- |
| 0.637 L/mmol/s | 1.974 L/mmol/s | 2.880 L/mmol/s | 3.480 L/mmol/s | 1.929 L/mmol/s | 0.576 L/mmol/s |  |  |  |  |  |  |  |  |  |  |  |  | CS(=O)(=O)N[C@@H](C(=O)NCC(=O)N[C@@H](CCCNC(=N)N)C(=O)Nc1ccc([N+](=O)[O-])cc1)C1CCCCC1 [MeSO2 --D--CHG--Gly--Arg--pNA, MeSO2 -D-CHG-Gly-Arg-pNA] (Ms-[dChg]-Gly-Arg-pNA) |
|  |  |  |  |  |  | 0.348 L/mmol/s | 0.515 L/mmol/s | 1.018 L/mmol/s | 1.018 L/mmol/s | 0.692 L/mmol/s | 0.172 L/mmol/s | 0.299 L/mmol/s | 0.737 L/mmol/s | 1.169 L/mmol/s | 1.395 L/mmol/s | 0.922 L/mmol/s | 0.390 L/mmol/s | CS(=O)(=O)N[C@H](CC1CCC(O)CC1)C(=O)NCC(=O)N[C@@H](CCCNC(=N)N)C(=O)Nc1ccc([N+](=O)[O-])cc1 (stereo partly drawn) [MeSO2 --D--HHT--Gly--Arg--pNA, MeSO2 -D-HHT-Gly-Arg-pNA] |
